The record followed here is patent publication US11851440B2, “Modulators of eukaryotic initiation factor 2B, compositions and methods” (Denali Therapeutics Inc., priority 2017, dated 2023).

One assay relates to ISR pathway (ATF4 translation). The assay can be described thus: ATF4 Nano Luciferase reporter integrated stress response (ISR) assay in H4 ATF4-NLuc cells. The note with it: Homo sapiens, H4 ATF4-NLuc (clone 17) cells; compound 30 minutes, then 50 um sodium arsenite for 6 hours; luminescence readout.
By IC50 is commonly meant the concentration that inhibits the measured activity by half. Molecule `O=C(COc1ccc(Br)cc1)NC12CC(c3nnc([C@H]4C[C@@H](OC(F)(F)F)C4)o3)(C1)C2` [Example 163] had an IC50 of 8.5 nM.

For `O=C(NC12CC(c3nnc([C@H]4C[C@@H](OC(F)(F)F)C4)o3)(C1)C2)c1ccc2cc(Cl)ccc2n1` [Example 169], the IC50 was 3.8 nM.

Still in this assay, the particulars now being: Homo sapiens, read-out: Activity (IC50), H4 ATF4-NLuc (clone 17) cells; compound 30 minutes, then 50 um sodium arsenite for 6 hours; luminescence readout.
With `O=C(NC12CC(c3nnc([C@H]4C[C@@H](OC(F)(F)F)C4)o3)(C1)C2)C1=NO[C@H](c2ccccc2)C1` [Example 100, cis-(S)-5-phenyl-N-(3-(5-(3-(trifluoromethoxy)cyclobutyl)-1,3,4-oxadiazol-2-yl)bicyclo[1.1.1]pentan-1-yl)-4,5-dihydroisoxazole-3-carboxamide], the IC50 is under 1000 nM.

Turning to `O=C(CO[C@H]1C[C@@H](OC(F)(F)F)C1)NC12CC(c3nnc([C@H]4C[C@@H](OC(F)(F)F)C4)o3)(C1)C2` [Example 50], the IC50 is under 1000 nM.

On to `O=C(CO[C@H]1C[C@@H](OC(F)(F)F)C1)NC12CC(c3nnc(-c4ccc(Cl)cn4)s3)(C1)C2` [Example 241], for which the IC50 is under 1000 nM.

Consider `O=C(COc1ccc(Cl)c(F)c1)NC12CC(c3ncc(C4CCC4)o3)(C1)C2` [Example 47], for which the IC50 was under 1000 nM.

As for `O=C(NC12CC(c3nnc([C@H]4C[C@@H](OC(F)(F)F)C4)o3)(C1)C2)OCc1ccc(Cl)cc1` [Example 110, (4-chlorophenyl)methyl-N-[3-[5-[3-cis-(trifluoromethoxy)cyclobutyl]-1,3,4-oxadiazol-2-yl]-1-bicyclo[1.1.1]pentanyl]carbamate], the IC50 was under 1000 nM.

In the case of `O=C(COC1CC2(CC2)C1)NC12CC(c3nnc([C@H]4C[C@@H](OC(F)(F)F)C4)o3)(C1)C2` [Example 115, 2-spiro[2.3]hexan-5-yloxy-N-[3-[5-[3-cis-(trifluoromethoxy)cyclobutyl]-1,3,4-oxadiazol-2-yl]-1-bicyclo[1.1.1]pentanyl]acetamide], the IC50 is 1000 to 10000 nM.

Take `O=C(CO[C@H]1C[C@@H](OC(F)(F)F)C1)NC12CC(n3cnc(-c4ccc(F)cc4F)c3)(C1)C2` [Example 135]: the IC50 is under 1000 nM.

`O=C(NC12CC(n3cnc(-c4ccc(F)c(F)c4)c3)(C1)C2)[C@H]1C[C@@H](OCCOC(F)(F)F)C1` [Example 229]: the IC50 is under 1000 nM.

With `O=C(CO[C@H]1C[C@@H](OC(F)(F)F)C1)NC12CC(c3nnn(-c4ccc(Cl)cc4)n3)(C1)C2` [Example 243], the IC50 is under 1000 nM.

Take `O=C(NC12CC(c3nnc([C@H]4C[C@@H](OC(F)(F)F)C4)o3)(C1)C2)c1ncc2ccccc2n1` [Example 191]: the IC50 is under 1000 nM.

`Cc1nc(C2CC(OC(F)(F)F)C2)cn1C12CC(NC(=O)CO[C@H]3C[C@@H](OC(F)(F)F)C3)(C1)C2` (stereo partly drawn) [Example 96, N-[3-[2-methyl-4-[3-(trifluoromethoxy)cyclobutyl]imidazol-1-yl]-1-bicyclo[1.1.1]pentanyl]-2-[3-cis-(trifluoromethoxy)cyclobutoxy]acetamide]: the IC50 was under 1000 nM.

Take `O=C(COc1ccc(Cl)c(F)c1)NC12CC(c3c[nH]nn3)(C1)C2` [Example 32, N-(3-(1H-1,2,3-triazol-4-yl)bicyclo[1.1.1]pentan-1-yl)-2-(4-chloro-3-fluorophenoxy)acetamide]: the IC50 is under 1000 nM.

`O=C(COc1ccc(Cl)c(F)c1)NC12CC(c3nnc([C@H]4C[C@@H](C(F)(F)F)C4)o3)(C1)C2` [Example 43, 2-(4-chloro-3-fluorophenoxy)-N-(3-(5-((cis)-3-(trifluoromethyl)cyclobutyl)-1,3,4-oxadiazol-2-yl)bicyclo[1.1.1]pentan-1-yl)acetamide]: the IC50 is under 1000 nM.

Consider `O=C(CO[C@H]1C[C@@H](OC(F)(F)F)C1)NC12CC(c3nc4ccc(Cl)cc4o3)(C1)C2` [Example 233], for which the IC50 is under 1000 nM.

With `O=C(COc1ccc(Cl)c(F)c1)NC12CC(c3cn(Cc4ccccc4)nn3)(C1)C2` [Example 58], the IC50 is under 1000 nM.

In the case of `O=C(COc1ccc(Cl)cc1)NC12CC(c3nnc(C4CCOC4)o3)(C1)C2` (stereo not drawn) [Example 1, 2-(4-Chlorophenoxy)-N-[3-(5-tetrahydrofuran-3-yl-1,3,4-oxadiazol-2-yl)-1-bicyclo[1.1.1]pentanyl]acetamide], the IC50 was in the range of 1000 to 10000 nM.

Turning to `O=C(COC1CC(OC(F)(F)F)C1)NC12CC(c3nnc(-c4cnn(CC(F)(F)F)c4)o3)(C1)C2` (stereo not drawn) [Example 118, N-[3-[5-[1-(2,2,2-trifluoroethyl)pyrazol-4-yl]-1,3,4-oxadiazol-2-yl]-1-bicyclo[1.1.1]pentanyl]-2-[3-cis-(trifluoromethoxy)cyclobutoxy]acetamide], the IC50 fell in the range of 1000 to 10000 nM.

On to `O=C(COc1ccc(Cl)c(F)c1)NC12CC(N3CCN(CC4CCC4)C3=O)(C1)C2` [Example 215], for which the IC50 was in the range of 1000 to 10000 nM.

On to `Cc1nnc(C23CC(NC(=O)COc4ccc(Cl)c(F)c4)(C2)C3)o1` [Example 40, 2-(4-chloro-3-fluoro-phenoxy)-N-[1-(5-methyl-1,3,4-oxadiazol-2-yl)-3-bicyclo[1.1.1]pentanyl]acetamide], for which the IC50 is under 1000 nM.

Turning to `O=C(COc1ccc(Cl)c(F)c1)NC12CC(N3CCC(COC(F)(F)F)C3=O)(C1)C2` (stereo not drawn) [Example 222], the IC50 is under 1000 nM.

As to `O=C(COc1ccc(Cl)c(F)c1)NC12CC(c3cn([C@H]4C[C@H](OC(F)(F)F)C4)nn3)(C1)C2` [Example 64, 2-(4-chloro-3-fluoro-phenoxy)-N-[3-[1-[3-trans-(trifluoromethoxy)cyclobutyl]triazol-4-yl]-1-bicyclo[1.1.1]pentanyl]acetamide], the IC50 was under 1000 nM.

Take `O=C(COc1ccc(Cl)cc1)NC12CC(c3nnc(CC(F)(F)F)o3)(C1)C2` [Example 4, 2-(4-chlorophenoxy)-N-[3-[5-(2,2,2-trifluoroethyl)-1,3,4-oxadiazol-2-yl]-1-bicyclo[1.1.1]pentanyl]acetamide]: the IC50 lay in the range of 1000 to 10000 nM.

On to `O=C(COc1ccc(Cl)c(F)c1)NC12CC(n3cnc(C4CCC4)c3)(C1)C2` [Example 39, 2-(4-chloro-3-fluoro-phenoxy)-N-[3-(4-cyclobutylimidazol-1-yl)-1-bicyclo[1.1.1]pentanyl]acetamide], for which the IC50 is under 1000 nM.

Consider `O=C(COc1ccc(Cl)c(F)c1)NC12CC(c3nnc(C4CN(CC(F)(F)F)CCO4)o3)(C1)C2` (stereo not drawn) [Example 127, 2-(4-chloro-3-fluoro-phenoxy)-N-[3-[5-[4-(2,2,2-trifluoroethyl)morpholin-2-yl]-1,3,4-oxadiazol-2-yl]-1-bicyclo[1.1.1]pentanyl]acetamide], for which the IC50 is under 1000 nM.

For `O=C(COc1ccc(Cl)c(F)c1)NC12CC(c3cn(C4CCC4)nn3)(C1)C2` (single isomer, unassigned) [Example 20, 2-(4-chloro-3-fluoro-phenoxy)-N-[1-(1-cyclobutyltriazol-4-yl)-3-bicyclo[1.1.1]pentanyl]acetamide], the IC50 was under 1000 nM.

Turning to `CC(N1CC(c2nnc(C34CC(NC(=O)COc5ccc(Cl)c(F)c5)(C3)C4)o2)C1)C(F)(F)F` (stereo not drawn) [Example 123, 2-(4-chloro-3-fluoro-phenoxy)-N-[3-[5-[1-(2,2,2-trifluoro-1-methyl-ethyl)azetidin-3-yl]-1,3,4-oxadiazol-2-yl]-1-bicyclo[1.1.1]pentanyl]acetamide], the IC50 is under 1000 nM.

Take `O=C(NC12CC(c3nnc(C4CC(OC(F)(F)F)C4)o3)(C1)C2)c1nc2cc(Cl)ccc2o1` (stereo not drawn) [Example 165]: the IC50 was under 1000 nM.

Consider `O=C(CO[C@H]1C[C@@H](OC(F)(F)F)C1)NC12CC(NCCOc3ccc(Cl)c(F)c3)(C1)C2` [Example 246], for which the IC50 is under 1000 nM.

For the molecule `O=C(COc1ccc(Br)cc1)NC12CC(c3nnc([C@H]4C[C@@H](OC(F)(F)F)C4)o3)(C1)C2` [Example 163], the IC50 was under 1000 nM.

Regarding `O=C(NC12CC(c3nnc([C@H]4C[C@@H](OC(F)(F)F)C4)o3)(C1)C2)c1cnc2ccccc2n1` [Example 188], the IC50 was under 1000 nM.

Regarding `O=C(CO[C@H]1C[C@@H](OC(F)(F)F)C1)NC12CC(n3cnc(-c4cccc(F)c4)c3)(C1)C2` [Example 137], the half-maximal inhibitory concentration (IC50) is under 1000 nM.

For `O=C(NC12CC(c3nnc([C@H]4C[C@@H](OC(F)(F)F)C4)o3)(C1)C2)C1CCc2cc(F)ccc2O1` (single isomer, unassigned) [Example 159], the IC50 was under 1000 nM.

For the molecule `O=C(COc1ccc(Cl)c(F)c1)NC12CC(c3nnc(CCOC(F)(F)F)o3)(C1)C2` [Example 55], the IC50 is under 1000 nM.

On to `O=C(COc1ccc(Cl)c(F)c1)NC12CC(c3cc(C4CCC4)no3)(C1)C2` [Example 26, 2-(4-Chloro-3-fluorophenoxy)-N-(3-(3-cyclobutylisoxazol-5-yl)bicyclo[1.1.1]pentan-1-yl)acetamide], for which the IC50 was under 1000 nM.

For the molecule `C[C@H]1C[C@@H]1c1nnc(C23CC(NC(=O)COc4ccc(Cl)c(F)c4)(C2)C3)o1` (single isomer, unassigned) [Example 112, 2-(4-chloro-3-fluoro-phenoxy)-N-[1-[5-[2-methylcyclopropyl]-1,3,4-oxadiazol-2-yl]-3-bicyclo[1.1.1]pentanyl]acetamide], the 50% inhibitory concentration (IC50) is under 1000 nM.

In the case of `O=C(CO[C@H]1C[C@@H](OC(F)(F)F)C1)NC12CC(c3cnn(-c4ccc(Cl)cc4)c3)(C1)C2` [Example 263], the IC50 is under 1000 nM.

Take `O=C(NC12CC(c3nnc([C@H]4C[C@@H](OC(F)(F)F)C4)o3)(C1)C2)c1ccc2cc(Cl)ccc2n1` [Example 169]: the IC50 is under 1000 nM.

The same assay, now with this note: read-out: Activity (IC50); H4 ATF4-NLuc (clone 17) cells; compound 30 minutes, then 50 um sodium arsenite for 6 hours; luminescence readout.
Turning to `O=C(COc1ccc(Cl)c(F)c1)NC12CC(C3CN(CC4CCC4)C(=O)O3)(C1)C2` (stereo not drawn) [Example 60], the IC50 was under 1000 nM.

With `C[C@H]1C[C@@H]1c1nnc(C23CC(NC(=O)COc4ccc(Cl)c(F)c4)(C2)C3)o1` (single isomer, unassigned) [Example 113, 2-(4-chloro-3-fluoro-phenoxy)-N-[1-[5-[2-methylcyclopropyl]-1,3,4-oxadiazol-2-yl]-3-bicyclo[1.1.1]pentanyl]acetamide], the concentration for half-maximal inhibition (IC50) is under 1000 nM.

On to `O=C(COc1ccc(Cl)c(F)c1)NC12CC(C3CN(C4CCC4)C(=O)O3)(C1)C2` (stereo not drawn) [Example 59], for which the IC50 lay in the range of 1000 to 10000 nM.
